Patent US9359352B2, “Substituted benzimidazoles as PI3 kinase inhibitors” (Intellikine LLC, priority 2010, dated 2016)

Tests used:
Format in all cases: biochemical
PI3K α = biological target: T1, PI3K α (Homo sapiens, UniProt P42336); assay: PI 3-Kinase HTRF inhibition assay, PI3K α; conditions: in vitro; read-out: PI3K α IC50
T1 construct: purchased Upstate
Procedure: (§1) Commercial kits or systems for assaying PI3-K activities are available. The commercially available kits or systems can be used to screen for inhibitors and/or agonists of PI3-Ks including but not limited to PI 3-Kinase α, β, δ, and γ. An exemplary system is PI 3-Kinase (human) HTRF™ Assay from Upstate. […] Briefly, the assay is a time resolved FRET assay that indirectly measures PIP3 product formed by the activity of a PI3-K. The kinase reaction is performed in a microtitre plate (e.g., a 384 well microtitre plate). The total reaction volume is approximately 20 ul per well. In the first step, each well receives 2 ul of test compound in 20% dimethylsulphoxide resulting in a 2% DMSO final concentration. Next, approximately 14.5 ul of a kinase/PIP2 mixture (diluted in 1× reaction buffer) is added per well for a final concentration of 0.25-0.3 ug/ml kinase and 10 μM PIP2. The plate is scaled and incubated for 15 minutes at room temperature. To start the reaction, 3.5 ul of ATP (diluted in 1× reaction buffer) is added per well for a final concentration of 10 μM ATP. The plate is sealed and incubated for 1 hour at room temperature. The reaction is stopped by adding 5 ul of Stop Solution per well and then 5 ul of Detection Mix is added per well. The plate is sealed, incubated for 1 hour at room temperature, and then read on an appropriate plate reader. Data is analyzed and IC50s are generated using GraphPad Prism 5. For PI3K α, β, δ, and γ, the nM concentration of inhibitor to reach IC50 is provided. […] Similar assays, and others known in the art, can be used to measure the percent inhibition of other kinases, including but not limited to PI3K class II kinases, phosphoinositide 4 kinases (PI4K), and phosphoinositide 5 kinases (PI5K).

PI3K β = biological target: T2, PI3K β (Homo sapiens, UniProt P42338); assay: PI 3-Kinase HTRF inhibition assay, PI3K β; conditions: in vitro
T2 construct: purchased Upstate
T2 sequence (P42338 whole entry): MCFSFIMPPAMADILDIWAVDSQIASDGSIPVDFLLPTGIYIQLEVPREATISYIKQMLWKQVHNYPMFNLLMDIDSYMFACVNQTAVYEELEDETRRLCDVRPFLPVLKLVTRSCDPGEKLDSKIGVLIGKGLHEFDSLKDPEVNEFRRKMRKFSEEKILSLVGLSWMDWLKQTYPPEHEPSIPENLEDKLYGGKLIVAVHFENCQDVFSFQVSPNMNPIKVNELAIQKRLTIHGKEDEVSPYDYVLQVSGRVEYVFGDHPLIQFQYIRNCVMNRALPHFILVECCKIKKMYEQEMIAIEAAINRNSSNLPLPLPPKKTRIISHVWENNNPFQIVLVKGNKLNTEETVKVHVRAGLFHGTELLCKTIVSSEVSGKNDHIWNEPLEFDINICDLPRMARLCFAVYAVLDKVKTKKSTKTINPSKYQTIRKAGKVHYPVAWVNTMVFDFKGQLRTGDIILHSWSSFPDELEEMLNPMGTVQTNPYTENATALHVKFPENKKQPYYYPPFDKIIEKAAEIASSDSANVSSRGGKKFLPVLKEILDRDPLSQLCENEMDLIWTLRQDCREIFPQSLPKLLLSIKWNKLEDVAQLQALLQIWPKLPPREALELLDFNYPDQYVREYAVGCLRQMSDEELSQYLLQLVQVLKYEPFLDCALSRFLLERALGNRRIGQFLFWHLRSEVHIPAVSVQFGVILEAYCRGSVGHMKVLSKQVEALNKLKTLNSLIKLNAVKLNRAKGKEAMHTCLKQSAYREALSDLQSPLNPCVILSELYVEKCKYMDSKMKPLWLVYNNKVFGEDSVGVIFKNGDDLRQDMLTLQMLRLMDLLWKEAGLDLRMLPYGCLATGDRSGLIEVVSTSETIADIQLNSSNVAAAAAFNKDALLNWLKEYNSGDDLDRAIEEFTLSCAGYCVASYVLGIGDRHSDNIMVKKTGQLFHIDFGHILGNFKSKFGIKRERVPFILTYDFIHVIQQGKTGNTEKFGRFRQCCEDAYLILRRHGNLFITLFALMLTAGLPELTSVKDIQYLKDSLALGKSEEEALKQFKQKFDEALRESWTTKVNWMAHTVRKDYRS
T2 sequence (P27986 whole entry partner): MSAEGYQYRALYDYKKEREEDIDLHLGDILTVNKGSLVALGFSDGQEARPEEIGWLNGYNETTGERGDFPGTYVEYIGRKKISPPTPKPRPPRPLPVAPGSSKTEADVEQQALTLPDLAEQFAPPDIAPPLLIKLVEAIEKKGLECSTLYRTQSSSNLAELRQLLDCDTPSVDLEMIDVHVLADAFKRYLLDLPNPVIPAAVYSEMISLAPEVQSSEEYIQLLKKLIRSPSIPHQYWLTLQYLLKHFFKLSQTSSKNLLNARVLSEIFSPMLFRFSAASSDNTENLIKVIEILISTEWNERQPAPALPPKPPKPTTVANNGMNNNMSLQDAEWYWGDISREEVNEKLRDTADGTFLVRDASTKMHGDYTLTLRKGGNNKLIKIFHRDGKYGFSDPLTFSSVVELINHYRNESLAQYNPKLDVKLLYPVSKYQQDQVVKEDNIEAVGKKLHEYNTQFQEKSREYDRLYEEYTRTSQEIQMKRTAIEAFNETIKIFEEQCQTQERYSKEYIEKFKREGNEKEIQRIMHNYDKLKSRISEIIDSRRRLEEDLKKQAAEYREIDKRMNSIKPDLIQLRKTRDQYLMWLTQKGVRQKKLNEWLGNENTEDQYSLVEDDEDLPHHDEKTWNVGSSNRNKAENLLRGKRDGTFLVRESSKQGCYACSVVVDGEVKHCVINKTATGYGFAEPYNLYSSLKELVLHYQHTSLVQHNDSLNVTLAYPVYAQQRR
Procedure: as §1

PI3K δ = biological target: T3, PI3K δ (Homo sapiens, UniProt O00329); assay: PI 3-Kinase HTRF inhibition assay, PI3K δ; conditions: in vitro; read-out: PI3K δ IC50
T3 construct: purchased Upstate
T3 sequence (O00329 whole entry): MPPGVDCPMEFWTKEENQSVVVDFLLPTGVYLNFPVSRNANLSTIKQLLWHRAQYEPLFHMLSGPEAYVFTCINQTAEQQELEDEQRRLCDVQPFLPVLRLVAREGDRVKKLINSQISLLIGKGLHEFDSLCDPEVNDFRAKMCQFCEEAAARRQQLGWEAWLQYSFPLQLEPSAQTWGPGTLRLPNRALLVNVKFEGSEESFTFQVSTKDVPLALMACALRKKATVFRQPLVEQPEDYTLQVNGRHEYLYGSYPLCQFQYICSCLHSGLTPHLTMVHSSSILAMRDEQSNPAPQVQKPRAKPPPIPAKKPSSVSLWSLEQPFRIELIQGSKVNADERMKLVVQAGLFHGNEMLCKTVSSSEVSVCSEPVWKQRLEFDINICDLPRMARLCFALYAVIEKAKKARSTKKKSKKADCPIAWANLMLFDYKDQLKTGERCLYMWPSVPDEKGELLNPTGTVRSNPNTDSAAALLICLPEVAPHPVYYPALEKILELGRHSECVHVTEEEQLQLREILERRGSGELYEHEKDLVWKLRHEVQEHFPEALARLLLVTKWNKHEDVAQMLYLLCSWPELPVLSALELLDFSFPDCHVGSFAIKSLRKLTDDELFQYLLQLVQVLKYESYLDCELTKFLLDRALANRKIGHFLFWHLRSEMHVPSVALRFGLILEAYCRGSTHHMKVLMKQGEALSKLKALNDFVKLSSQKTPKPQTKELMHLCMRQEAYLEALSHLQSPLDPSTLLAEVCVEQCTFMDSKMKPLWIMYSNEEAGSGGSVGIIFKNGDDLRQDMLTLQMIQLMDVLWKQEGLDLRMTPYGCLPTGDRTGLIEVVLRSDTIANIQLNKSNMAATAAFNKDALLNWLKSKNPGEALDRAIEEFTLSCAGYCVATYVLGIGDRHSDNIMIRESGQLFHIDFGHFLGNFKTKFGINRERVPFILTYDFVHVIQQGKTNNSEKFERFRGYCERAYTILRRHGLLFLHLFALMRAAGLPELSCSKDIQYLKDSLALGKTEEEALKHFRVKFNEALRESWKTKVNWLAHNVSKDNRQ
T3 sequence (P27986 whole entry partner): as the sequence (P27986 whole entry partner) above
Procedure: as §1

PI3K γ = biological target: T4, PI3K γ (Homo sapiens, UniProt P48736); assay: PI 3-Kinase HTRF inhibition assay, PI3K γ; conditions: in vitro
T4 construct: purchased Upstate
T4 sequence (P48736 whole entry): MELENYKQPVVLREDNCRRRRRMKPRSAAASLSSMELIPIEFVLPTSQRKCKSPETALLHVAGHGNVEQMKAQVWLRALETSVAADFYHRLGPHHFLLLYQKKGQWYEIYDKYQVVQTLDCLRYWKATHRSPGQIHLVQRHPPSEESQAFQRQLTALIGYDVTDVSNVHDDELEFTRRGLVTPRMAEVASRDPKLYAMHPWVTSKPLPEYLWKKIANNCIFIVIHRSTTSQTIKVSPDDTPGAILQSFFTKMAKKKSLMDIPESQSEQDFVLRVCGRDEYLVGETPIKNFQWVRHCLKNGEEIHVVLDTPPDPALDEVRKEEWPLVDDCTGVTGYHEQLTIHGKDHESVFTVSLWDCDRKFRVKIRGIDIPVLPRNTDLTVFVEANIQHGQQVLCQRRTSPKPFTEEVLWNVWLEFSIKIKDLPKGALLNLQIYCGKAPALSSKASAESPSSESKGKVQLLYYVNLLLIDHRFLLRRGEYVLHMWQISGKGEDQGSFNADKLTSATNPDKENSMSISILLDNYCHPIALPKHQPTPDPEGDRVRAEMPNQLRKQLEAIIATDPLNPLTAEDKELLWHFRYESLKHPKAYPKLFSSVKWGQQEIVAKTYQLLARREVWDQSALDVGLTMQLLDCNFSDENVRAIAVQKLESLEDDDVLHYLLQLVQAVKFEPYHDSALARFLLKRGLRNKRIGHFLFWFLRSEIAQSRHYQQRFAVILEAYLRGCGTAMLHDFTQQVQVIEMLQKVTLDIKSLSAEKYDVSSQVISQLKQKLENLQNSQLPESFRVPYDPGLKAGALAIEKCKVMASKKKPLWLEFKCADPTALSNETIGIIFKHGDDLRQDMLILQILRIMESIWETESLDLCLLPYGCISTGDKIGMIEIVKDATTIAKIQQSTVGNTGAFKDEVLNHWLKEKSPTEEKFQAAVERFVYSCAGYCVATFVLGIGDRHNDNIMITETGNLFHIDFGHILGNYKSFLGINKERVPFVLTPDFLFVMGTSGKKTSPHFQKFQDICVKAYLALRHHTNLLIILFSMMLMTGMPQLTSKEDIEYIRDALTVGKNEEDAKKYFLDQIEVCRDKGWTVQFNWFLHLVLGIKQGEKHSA

T1 sequence (P42336 whole entry): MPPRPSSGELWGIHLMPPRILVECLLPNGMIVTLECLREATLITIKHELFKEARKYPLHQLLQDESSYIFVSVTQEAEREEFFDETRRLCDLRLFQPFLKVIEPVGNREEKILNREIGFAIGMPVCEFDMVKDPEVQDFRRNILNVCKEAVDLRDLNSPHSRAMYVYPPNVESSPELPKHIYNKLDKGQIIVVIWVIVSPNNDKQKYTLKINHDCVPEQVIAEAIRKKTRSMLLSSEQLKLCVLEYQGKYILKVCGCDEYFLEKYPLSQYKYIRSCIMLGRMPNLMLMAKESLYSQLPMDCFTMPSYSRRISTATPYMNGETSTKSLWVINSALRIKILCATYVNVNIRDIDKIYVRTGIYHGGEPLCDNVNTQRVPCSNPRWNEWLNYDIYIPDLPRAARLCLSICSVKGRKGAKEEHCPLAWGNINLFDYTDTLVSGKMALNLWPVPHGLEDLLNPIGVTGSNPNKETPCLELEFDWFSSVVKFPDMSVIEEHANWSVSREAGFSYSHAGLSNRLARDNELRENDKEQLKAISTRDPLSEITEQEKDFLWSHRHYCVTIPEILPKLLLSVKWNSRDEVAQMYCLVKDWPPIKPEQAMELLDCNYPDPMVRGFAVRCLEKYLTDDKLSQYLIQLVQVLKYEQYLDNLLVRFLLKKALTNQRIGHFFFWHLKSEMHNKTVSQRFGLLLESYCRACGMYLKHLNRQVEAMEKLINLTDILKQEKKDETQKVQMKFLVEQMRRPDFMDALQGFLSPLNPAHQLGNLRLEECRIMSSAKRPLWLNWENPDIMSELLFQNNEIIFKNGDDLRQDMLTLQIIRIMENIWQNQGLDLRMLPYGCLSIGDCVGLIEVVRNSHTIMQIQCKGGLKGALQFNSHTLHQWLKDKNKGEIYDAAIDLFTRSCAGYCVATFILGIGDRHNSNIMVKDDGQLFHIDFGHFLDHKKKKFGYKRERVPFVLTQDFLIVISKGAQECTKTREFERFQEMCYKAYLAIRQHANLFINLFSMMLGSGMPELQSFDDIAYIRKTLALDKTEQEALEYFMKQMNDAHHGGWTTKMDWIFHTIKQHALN
T1 sequence (P27986 whole entry partner): as the sequence (P27986 whole entry partner) above

IC50 (PI3K α) [nM]	IC50 (PI3K β) [nM]	IC50 (PI3K δ) [nM]	IC50 (PI3K γ) [nM]	SMILES
< 1000	> 10000	> 10000	< 10000	CC1CN(C2CN(c3cnc4ccc(-c5ccc6oc(N)nc6c5)nc4n3)C2)CCO1 (stereo not shown) [Compound 18]
< 1000	> 10000	> 10000	< 10000	Nc1nc2cc(-c3ccc4ncc(N5CC(N6CC7CCC(C6)O7)C5)nc4n3)ccc2o1 [Compound 20]
< 100	> 10000	< 10000	< 10000	C[C@@H]1CN(C2CN(c3cnc4ccc(-c5ccc6oc(N)nc6c5)nc4n3)C2)CCN1C [Compound 25]
< 1000	> 10000	< 10000	< 1000	CCN(CC)c1cnc2ccc(-c3ccc4oc(N)nc4c3)nc2n1 [Compound 26]
< 100	> 10000	> 10000	< 1000	Nc1nc2cc(-c3ccc4ncc(N5CC6CCC(C5)O6)nc4n3)ccc2o1 [Compound 28]
< 100	< 100	< 100	< 100	C[C@H](N)C(=O)N1CCN(c2cnc3ccc(-c4ccc5oc(N)nc5c4)nc3n2)CC1 [Compound 30]
< 100	< 10000	< 10000	< 1000	C[C@@H](N)C(=O)N1CCN(c2cnc3ccc(-c4ccc5oc(N)nc5c4)nc3n2)CC1 [Compound 31]
< 100	< 1000	< 10000	< 1000	CC(C)N1CCN(c2cnc3ccc(-c4ccc5oc(N)nc5c4)nc3n2)CC1 [Compound 32]
< 100	< 10000	< 10000	< 10000	NCC(=O)N1CCN(c2cnc3ccc(-c4ccc5oc(N)nc5c4)nc3n2)CC1 [Compound 33]
< 100	< 1000	< 1000	< 1000	NCC(=O)N1CCN(c2cnc3ccc(-c4ccc5oc(N)nc5c4)nc3c2)CC1 [Compound 37]
< 100	< 1000	< 1000	< 1000	C[C@H](N)C(=O)N1CCN(c2cnc3ccc(-c4ccc5oc(N)nc5c4)nc3c2)CC1 [Compound 38]
< 100	< 100	< 1000	< 1000	C[C@@H](N)C(=O)N1CCN(c2cnc3ccc(-c4ccc5oc(N)nc5c4)nc3c2)CC1 [Compound 39]

Second part, the compound before the results:

SMILES	IC50 (PI3K α) [nM]	IC50 (PI3K β) [nM]	IC50 (PI3K δ) [nM]	IC50 (PI3K γ) [nM]
Nc1nc2cc(-c3ccc4ncc(-c5cccnc5)cc4n3)ccc2o1 [Compound 16]	< 100	< 10000	< 10000	< 100
C[C@H]1CN(C2CN(c3cnc4ccc(-c5ccc6oc(N)nc6c5)nc4n3)C2)CCN1C [Compound 21]	< 100	> 10000	< 10000	> 10000
Nc1nc2cc(-c3ccc4ncc(N5CCOCC5)cc4n3)ccc2o1 [Compound 22]	< 100	< 1000	> 10000	< 100
Nc1nc2cc(-c3ccc4ncc(N5C6CCC5COC6)cc4n3)ccc2o1 [Compound 23]	< 100	< 10000	> 10000	< 100
CN1CCN(c2cnc3ccc(-c4ccc5oc(N)nc5c4)nc3c2)CC1 [Compound 24]	< 100	< 100	< 10000	< 1000
C[C@@H]1CN(c2cnc3ccc(-c4ccc5oc(N)nc5c4)nc3n2)CCN1 [Compound 27]	< 100	< 100	< 10000	< 1000
Nc1nc2cc(-c3ccc4ncc(N5CCNC(=O)C5)nc4n3)ccc2o1 [Compound 29]	< 100	< 1000	< 10000	< 100
Nc1nc2cc(-c3ccc4ncc(N5CC(N6CCNCC6)C5)nc4n3)ccc2o1 [Compound 34]	< 1000	> 10000	> 10000	> 10000
Nc1nc2cc(-c3ccc4ncc(N5CC(N6CCN(CC7CC7)CC6)C5)nc4n3)ccc2o1 [Compound 35]	< 100	< 10000	< 10000	< 10000
CCOC(=O)N1CCN(c2cnc3ccc(-c4ccc5oc(N)nc5c4)nc3c2)CC1 [Compound 36]	< 100	< 10000	> 10000	< 100
